In article PMC7156458, “Synthetic biology based construction of biological activity-related library of fungal decalin-containing diterpenoid pyrones” (Nature Communications, 2020):

Target: Aβ42 (Homo sapiens, UniProt P05067)
Experiment: Th-T (thioflavin-T) assay of Aβ42 aggregation
Format: biochemical
Conditions: for Th-T assay plate reading, mean of three wells (Supplementary Fig. 47): source data, Ab alone and No Ab as controls

Chain of Aβ42 (P05067 672-713): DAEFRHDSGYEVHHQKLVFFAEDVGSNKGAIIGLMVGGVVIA

## C=C1CC[C@H]2[C@]3(C)C[C@@H](C=C(C)C)O[C@H]3CC[C@]2(C)[C@@H]1Cc1c(OC)oc(CO)c(C)c1=O [Compound 17]
Aβ42 aggregation time course, reading M117
  Th-T fluorescence, mean of three wells: 3.6742
Aβ42 aggregation time course, reading M118
  Th-T fluorescence, mean of three wells: 3.663
Aβ42 aggregation time course, reading M119
  Th-T fluorescence, mean of three wells: 3.652
Aβ42 aggregation time course, reading M120
  Th-T fluorescence, mean of three wells: 3.6432
Aβ42 aggregation time course, reading M121
  Th-T fluorescence, mean of three wells: 3.639
Aβ42 aggregation time course, reading M122
  Th-T fluorescence, mean of three wells: 3.631
Aβ42 aggregation time course, reading M123
  Th-T fluorescence, mean of three wells: 3.625
Aβ42 aggregation time course, reading M124
  Th-T fluorescence, mean of three wells: 3.645
Aβ42 aggregation time course, reading M125
  Th-T fluorescence, mean of three wells: 3.636
Aβ42 aggregation time course, reading M126
  Th-T fluorescence, mean of three wells: 3.626
Aβ42 aggregation time course, reading M127
  Th-T fluorescence, mean of three wells: 3.63
Aβ42 aggregation time course, reading M128
  Th-T fluorescence, mean of three wells: 3.617
Aβ42 aggregation time course, reading M129
  Th-T fluorescence, mean of three wells: 3.6361
Aβ42 aggregation time course, reading M130
  Th-T fluorescence, mean of three wells: 3.633
Aβ42 aggregation time course, reading M131
  Th-T fluorescence, mean of three wells: 3.621
Aβ42 aggregation time course, reading M132
  Th-T fluorescence, mean of three wells: 3.621
Aβ42 aggregation time course, reading M133
  Th-T fluorescence, mean of three wells: 3.612
Aβ42 aggregation time course, reading M134
  Th-T fluorescence, mean of three wells: 3.622
Aβ42 aggregation time course, reading M135
  Th-T fluorescence, mean of three wells: 3.594
Aβ42 aggregation time course, reading M136
  Th-T fluorescence, mean of three wells: 3.604
Supplementary Fig. 47, reading M137
  Th-T fluorescence, mean of three wells: 3.585
Supplementary Fig. 47, reading M138
  Th-T fluorescence, mean of three wells: 3.583
Supplementary Fig. 47, reading M139
  Th-T fluorescence, mean of three wells: 3.585
Supplementary Fig. 47, reading M140
  Th-T fluorescence, mean of three wells: 3.575
Supplementary Fig. 47, reading M141
  Th-T fluorescence, mean of three wells: 3.571
Supplementary Fig. 47, reading M142
  Th-T fluorescence, mean of three wells: 3.57
Supplementary Fig. 47, reading M143
  Th-T fluorescence, mean of three wells: 3.569
Supplementary Fig. 47, reading M144
  Th-T fluorescence, mean of three wells: 3.562
Supplementary Fig. 47, reading M145
  Th-T fluorescence, mean of three wells: 3.551
Supplementary Fig. 47 source data, measurement M37 of time course
  Th-T fluorescence, mean of three wells: 3.249
Supplementary Fig. 47 source data, measurement M38 of time course
  Th-T fluorescence, mean of three wells: 3.349
Supplementary Fig. 47 source data, measurement M39 of time course
  Th-T fluorescence, mean of three wells: 3.376
Supplementary Fig. 47 source data, measurement M40 of time course
  Th-T fluorescence, mean of three wells: 3.376
Supplementary Fig. 47 source data, measurement M41 of time course
  Th-T fluorescence, mean of three wells: 3.367
Supplementary Fig. 47 source data, measurement M42 of time course
  Th-T fluorescence, mean of three wells: 3.371
Supplementary Fig. 47 source data, measurement M43 of time course
  Th-T fluorescence, mean of three wells: 3.406
Supplementary Fig. 47 source data, measurement M44 of time course
  Th-T fluorescence, mean of three wells: 3.418
Supplementary Fig. 47 source data, measurement M45 of time course
  Th-T fluorescence, mean of three wells: 3.459
Supplementary Fig. 47 source data, measurement M46 of time course
  Th-T fluorescence, mean of three wells: 3.456
Supplementary Fig. 47 source data, measurement M47 of time course
  Th-T fluorescence, mean of three wells: 3.465
Supplementary Fig. 47 source data, measurement M48 of time course
  Th-T fluorescence, mean of three wells: 3.489
Supplementary Fig. 47 source data, measurement M49 of time course
  Th-T fluorescence, mean of three wells: 3.497
Supplementary Fig. 47 source data, measurement M50 of time course
  Th-T fluorescence, mean of three wells: 3.516
Supplementary Fig. 47 source data, measurement M51 of time course
  Th-T fluorescence, mean of three wells: 3.557
Supplementary Fig. 47 source data, measurement M52 of time course
  Th-T fluorescence, mean of three wells: 3.55
Supplementary Fig. 47 source data, measurement M53 of time course
  Th-T fluorescence, mean of three wells: 3.554
Supplementary Fig. 47 source data, measurement M54 of time course
  Th-T fluorescence, mean of three wells: 3.5687
Supplementary Fig. 47 source data, measurement M55 of time course
  Th-T fluorescence, mean of three wells: 3.6
Supplementary Fig. 47 source data, measurement M56 of time course
  Th-T fluorescence, mean of three wells: 3.63
Measurement M1
  Th-T assay plate reading, mean of three wells (Supplementary Fig. 47): 0.2517
Measurement M2
  Th-T assay plate reading, mean of three wells (Supplementary Fig. 47): 0.2528
Measurement M3
  Th-T assay plate reading, mean of three wells (Supplementary Fig. 47): 0.2961
Measurement M4
  Th-T assay plate reading, mean of three wells (Supplementary Fig. 47): 0.352
Measurement M5
  Th-T assay plate reading, mean of three wells (Supplementary Fig. 47): 0.4245
Measurement M6
  Th-T assay plate reading, mean of three wells (Supplementary Fig. 47): 0.4941
Measurement M7
  Th-T assay plate reading, mean of three wells (Supplementary Fig. 47): 0.5517
Measurement M8
  Th-T assay plate reading, mean of three wells (Supplementary Fig. 47): 0.6173
Measurement M9
  Th-T assay plate reading, mean of three wells (Supplementary Fig. 47): 0.6978
Measurement M10
  Th-T assay plate reading, mean of three wells (Supplementary Fig. 47): 0.9149
Measurement M11
  Th-T assay plate reading, mean of three wells (Supplementary Fig. 47): 1.381
Measurement M12
  Th-T assay plate reading, mean of three wells (Supplementary Fig. 47): 1.864
Measurement M13
  Th-T assay plate reading, mean of three wells (Supplementary Fig. 47): 2.227
Measurement M14
  Th-T assay plate reading, mean of three wells (Supplementary Fig. 47): 2.461
Measurement M15
  Th-T assay plate reading, mean of three wells (Supplementary Fig. 47): 2.575
Measurement M16
  Th-T assay plate reading, mean of three wells (Supplementary Fig. 47): 2.619
Reading M17, Supplementary Fig. 47 source data
  Th-T fluorescence, mean of three wells: 2.658
Reading M18, Supplementary Fig. 47 source data
  Th-T fluorescence, mean of three wells: 2.682
Reading M19, Supplementary Fig. 47 source data
  Th-T fluorescence, mean of three wells: 2.683
Reading M20, Supplementary Fig. 47 source data
  Th-T fluorescence, mean of three wells: 2.726
Reading M21, Supplementary Fig. 47 source data
  Th-T fluorescence, mean of three wells: 2.74
Reading M22, Supplementary Fig. 47 source data
  Th-T fluorescence, mean of three wells: 2.776
Reading M23, Supplementary Fig. 47 source data
  Th-T fluorescence, mean of three wells: 2.7833
Reading M24, Supplementary Fig. 47 source data
  Th-T fluorescence, mean of three wells: 2.808
Reading M25, Supplementary Fig. 47 source data
  Th-T fluorescence, mean of three wells: 2.851
Reading M26, Supplementary Fig. 47 source data
  Th-T fluorescence, mean of three wells: 2.893
Reading M27, Supplementary Fig. 47 source data
  Th-T fluorescence, mean of three wells: 2.879
Reading M28, Supplementary Fig. 47 source data
  Th-T fluorescence, mean of three wells: 2.908
Reading M29, Supplementary Fig. 47 source data
  Th-T fluorescence, mean of three wells: 2.914
Reading M30, Supplementary Fig. 47 source data
  Th-T fluorescence, mean of three wells: 2.944
Reading M31, Supplementary Fig. 47 source data
  Th-T fluorescence, mean of three wells: 2.96
Reading M32, Supplementary Fig. 47 source data
  Th-T fluorescence, mean of three wells: 3.025
Reading M33, Supplementary Fig. 47 source data
  Th-T fluorescence, mean of three wells: 3.031
Reading M34, Supplementary Fig. 47 source data
  Th-T fluorescence, mean of three wells: 3.078
Reading M35, Supplementary Fig. 47 source data
  Th-T fluorescence, mean of three wells: 3.103
Reading M36, Supplementary Fig. 47 source data
  Th-T fluorescence, mean of three wells: 3.12
Time course, reading M57
  Th-T fluorescence, mean of three wells: 3.617
Time course, reading M58
  Th-T fluorescence, mean of three wells: 3.628
Time course, reading M59
  Th-T fluorescence, mean of three wells: 3.637
Time course, reading M60
  Th-T fluorescence, mean of three wells: 3.637
Time course, reading M61
  Th-T fluorescence, mean of three wells: 3.653
Time course, reading M62
  Th-T fluorescence, mean of three wells: 3.653
Time course, reading M63
  Th-T fluorescence, mean of three wells: 3.655
Time course, reading M64
  Th-T fluorescence, mean of three wells: 3.667
Time course, reading M65
  Th-T fluorescence, mean of three wells: 3.662
Time course, reading M66
  Th-T fluorescence, mean of three wells: 3.684
Time course, reading M67
  Th-T fluorescence, mean of three wells: 3.7096
time-course reading M97, Supplementary Fig. 47 source data
  Th-T fluorescence, mean of three wells: 3.715
time-course reading M98, Supplementary Fig. 47 source data
  Th-T fluorescence, mean of three wells: 3.727
time-course reading M99, Supplementary Fig. 47 source data
  Th-T fluorescence, mean of three wells: 3.7169
time-course reading M100, Supplementary Fig. 47 source data
  Th-T fluorescence, mean of three wells: 3.715
time-course reading M101, Supplementary Fig. 47 source data
  Th-T fluorescence, mean of three wells: 3.715
time-course reading M102, Supplementary Fig. 47 source data
  Th-T fluorescence, mean of three wells: 3.7
time-course reading M103, Supplementary Fig. 47 source data
  Th-T fluorescence, mean of three wells: 3.686
time-course reading M104, Supplementary Fig. 47 source data
  Th-T fluorescence, mean of three wells: 3.695
time-course reading M105, Supplementary Fig. 47 source data
  Th-T fluorescence, mean of three wells: 3.722
time-course reading M106, Supplementary Fig. 47 source data
  Th-T fluorescence, mean of three wells: 3.704
time-course reading M107, Supplementary Fig. 47 source data
  Th-T fluorescence, mean of three wells: 3.71
time-course reading M108, Supplementary Fig. 47 source data
  Th-T fluorescence, mean of three wells: 3.718
time-course reading M109, Supplementary Fig. 47 source data
  Th-T fluorescence, mean of three wells: 3.713
time-course reading M110, Supplementary Fig. 47 source data
  Th-T fluorescence, mean of three wells: 3.7
time-course reading M111, Supplementary Fig. 47 source data
  Th-T fluorescence, mean of three wells: 3.699
time-course reading M112, Supplementary Fig. 47 source data
  Th-T fluorescence, mean of three wells: 3.698
time-course reading M113, Supplementary Fig. 47 source data
  Th-T fluorescence, mean of three wells: 3.697
time-course reading M114, Supplementary Fig. 47 source data
  Th-T fluorescence, mean of three wells: 3.674
time-course reading M115, Supplementary Fig. 47 source data
  Th-T fluorescence, mean of three wells: 3.682
time-course reading M116, Supplementary Fig. 47 source data
  Th-T fluorescence, mean of three wells: 3.669
